From ChEMBL document CHEMBL5247597, “Enantioselective semisynthesis of novel cephalotaxine esters with potent antineoplastic activities against leukemia” (Eur J Med Chem, 2022)
Active and inactive are the calls of the source. The rule behind the calls is not given here.

Assays:
K562 [1] = test: Antiproliferative activity against human K562 cells assessed as inhibition of cell growth measured after 72 hrs by CCK8 assay; type: functional, cell-based; settings: K562, 72 h
HL-60 = test: Antiproliferative activity against human HL-60 cells assessed as inhibition of cell growth measured after 72 hrs by CCK8 assay; type: functional, cell-based; settings: HL-60, 72 h
U-937 = test: Antiproliferative activity against human U-937 cells assessed as inhibition of cell growth measured after 72 hrs by CCK8 assay; type: functional, cell-based; settings: U-937, 72 h
NCI-H1299 = test: Antiproliferative activity against human NCI-H1299 cells assessed as inhibition of cell growth measured after 72 hrs by CCK8 assay; type: functional, cell-based; settings: NCI-H1299, 72 h
A204 = test: Antiproliferative activity against human A204 cells assessed as inhibition of cell growth measured after 72 hrs by CCK8 assay; type: functional, cell-based; settings: A204, 72 h
MOLT-4 = test: Antiproliferative activity against human MOLT-4 cells assessed as inhibition of cell growth measured after 72 hrs by CCK8 assay; type: functional, cell-based; settings: MOLT-4, 72 h
BaF3 = test: Antiproliferative activity against mouse BaF3 cells expressing Bcr/Abl-T315I mutant assessed as inhibition of cell growth measured after 72 hrs by CCK8 assay; type: functional, cell-based; settings: BaF3, 72 h
OCI-Ly3 = test: Antiproliferative activity against human OCILY3 cells assessed as inhibition of cell growth measured after 72 hrs by CCK8 assay; type: functional, cell-based; settings: OCI-Ly3, 72 h
4T1 = test: Antiproliferative activity against mouse 4T1 cells assessed as inhibition of cell growth measured after 72 hrs by CCK8 assay; type: functional, cell-based; settings: 4T1, 72 h
MV4-11 = test: Antiproliferative activity against human MV4-11 cells assessed as inhibition of cell growth measured after 72 hrs by CCK8 assay; type: functional, cell-based; settings: MV4-11, 72 h
[2] = Cytotoxicity against human HL7702 cells assessed as inhibition of cell growth measured after 72 hrs by CCK8 assay; type: toxicity, cell-based; settings: HL7702 (L02) cells
NCI-H716 = test: Antiproliferative activity against human NCI-H716 cells assessed as inhibition of cell growth measured after 72 hrs by CCK8 assay; type: functional, cell-based; settings: NCI-H716, 72 h
MDA-MB-453 = test: Antiproliferative activity against human MDA-MB-453 cells assessed as inhibition of cell growth measured after 72 hrs by CCK8 assay; type: functional, cell-based; settings: MDA-MB-453, 72 h
Huh-7 = test: Antiproliferative activity against human Huh-7 cells assessed as inhibition of cell growth measured after 72 hrs by CCK8 assay; type: functional, cell-based; settings: Huh-7, 72 h
HCT-116 = test: Antiproliferative activity against human HCT-116 cells assessed as inhibition of cell growth measured after 72 hrs by CCK8 assay; type: functional, cell-based; settings: HCT-116, 72 h
NCI-H1975 = test: Antiproliferative activity against human NCI-H1975 cells assessed as inhibition of cell growth measured after 72 hrs by CCK8 assay; type: functional, cell-based; settings: NCI-H1975, 72 h
K562 [3] = test: Downregulation of Myc expression in human K562 cells incubated for 24 hrs by Western blotting analysis; type: functional, cell-based; settings: dose 11.1-900 nM
K562 [4] = test: Downregulation of HSP90 expression in human K562 cells at 11.1 to 900 nM incubated for 24 hrs by Western blotting analysis; type: functional, cell-based; settings: dose 11.1-900 nM
K562 [5] = test: Downregulation of Bcr-Abl expression in human K562 cells incubated for 24 hrs by Western blotting analysis; type: functional, cell-based; settings: dose 11.1-900 nM
K562 [6] = test: Downregulation of p38 expression in human K562 cells at 11.1 to 900 nM incubated for 24 hrs by Western blotting analysis; type: functional, cell-based; settings: dose 11.1-900 nM
K562 [7] = test: Downregulation of Mcl-1 expression in human K562 cells incubated for 24 hrs by Western blotting analysis; type: functional, cell-based; settings: dose 11.1-900 nM

| Compound | IC50 (K562 [1]) [nM] | IC50 (HL-60) [nM] | IC50 (U-937) [nM] | also measured |
| --- | --- | --- | --- | --- |
| COC(=O)C[C@H](C)C(=O)O[C@@H]1C(OC)=C[C@]23CCCN2CCc2cc4c(cc2[C@H]13)OCO4 | 14500 | 18000 | 13800 |  |
| COC(=O)C[C@H](Cc1ccccc1)C(=O)O[C@@H]1C(OC)=C[C@]23CCCN2CCc2cc4c(cc2[C@H]13)OCO4 | 96 | 155 | 170 |  |
| COC(=O)C[C@H](Cc1ccc(NC(=O)OC(C)(C)C)cc1)C(=O)O[C@@H]1C(OC)=C[C@]23CCCN2CCc2cc4c(cc2[C@H]13)OCO4 | 149 | 155 | 130 |  |
| COC(=O)C[C@H](Cc1ccccc1O)C(=O)O[C@@H]1C(OC)=C[C@]23CCCN2CCc2cc4c(cc2[C@H]13)OCO4 | 681 | 718 | 807 |  |
| COC(=O)C[C@H](Cc1ccc2ccccc2c1)C(=O)O[C@@H]1C(OC)=C[C@]23CCCN2CCc2cc4c(cc2[C@H]13)OCO4 | 344 | 396 | 441 |  |
| COC(=O)C[C@@H](Cc1cccs1)C(=O)O[C@@H]1C(OC)=C[C@]23CCCN2CCc2cc4c(cc2[C@H]13)OCO4 | 186 | 246 | 277 |  |
| COC(=O)C[C@@H](Cc1ccccc1)C(=O)O[C@@H]1C(OC)=C[C@]23CCCN2CCc2cc4c(cc2[C@H]13)OCO4 | 404 | 548 | 725 |  |
| COC(=O)C[C@H](Cc1ccc(OCc2ccccc2)cc1)C(=O)O[C@@H]1C(OC)=C[C@]23CCCN2CCc2cc4c(cc2[C@H]13)OCO4 | 103 | 151 | 174 |  |
| COC(=O)C[C@H](Cc1cccc(NC(=O)OC(C)(C)C)c1)C(=O)O[C@@H]1C(OC)=C[C@]23CCCN2CCc2cc4c(cc2[C@H]13)OCO4 | 163 | 199 | 257 |  |
| COC(=O)C[C@H](Cc1cccc(OCc2ccccc2)c1)C(=O)O[C@@H]1C(OC)=C[C@]23CCCN2CCc2cc4c(cc2[C@H]13)OCO4 | 152 | 202 | 248 |  |
| COC1=C[C@]23CCCN2CCc2cc4c(cc2[C@@H]3[C@@H]1O)OCO4 [CEPHALOTAXINE] | > 30000 | > 30000 | > 30000 |  |
| CCOC(=O)C[C@H](Cc1ccc(O)cc1)C(=O)O[C@@H]1C(OC)=C[C@]23CCCN2CCc2cc4c(cc2[C@H]13)OCO4 | 572 | 576 | 834 |  |
| COC(=O)C[C@H](Cc1ccc(Br)cc1)C(=O)O[C@@H]1C(OC)=C[C@]23CCCN2CCc2cc4c(cc2[C@H]13)OCO4 | 553 | 701 | 929 |  |
| COC(=O)C[C@H](Cc1ccccc1Br)C(=O)O[C@@H]1C(OC)=C[C@]23CCCN2CCc2cc4c(cc2[C@H]13)OCO4 | 464 | 535 | 700 |  |
| COC(=O)C[C@](O)(CCCC(C)(C)O)C(=O)O[C@@H]1C(OC)=C[C@]23CCCN2CCc2cc4c(cc2[C@H]13)OCO4 [OMACETAXINE MEPESUCCINATE] | 14 | 13 | 12 | IC50 (NCI-H1299): 22 nM; IC50 (A204): 4 nM; IC50 (MOLT-4): 7 nM; IC50 (BaF3): 81 nM; IC50 (OCI-Ly3): 5 nM; IC50 (4T1): 60 nM; IC50 (MV4-11): 5 nM; IC50 at 72 h [2]: 64 nM; IC50 (NCI-H716): 65 nM; IC50 (MDA-MB-453): 21 nM; IC50 (Huh-7): 40 nM; IC50 (HCT-116): 13 nM; IC50 (NCI-H1975): 22 nM |
| COC(=O)C[C@H](Cc1ccc(N)cc1)C(=O)O[C@@H]1C(OC)=C[C@]23CCCN2CCc2cc4c(cc2[C@H]13)OCO4 | 112 | 130 | 121 | IC50 (NCI-H1299): 173 nM; IC50 (A204): 38 nM; Activity (K562 [3]): Dose-Dependent Effect; IC50 (MOLT-4): 60 nM; IC50 (BaF3): 246 nM; IC50 (OCI-Ly3): 58 nM; IC50 (4T1): 296 nM; IC50 (MV4-11): 98 nM; IC50 at 72 h [2]: 494 nM; IC50 (NCI-H716): 107 nM; Activity (K562 [4]): inactive; IC50 (MDA-MB-453): 70 nM; Activity (K562 [5]): Dose-Dependent Effect; Activity (K562 [6]): inactive; Activity (K562 [7]): Dose-Dependent Effect; IC50 (Huh-7): 216 nM; IC50 (HCT-116): 107 nM; IC50 (NCI-H1975): 11900 nM |
| COC(=O)C[C@H](Cc1cccc(F)c1)C(=O)O[C@@H]1C(OC)=C[C@]23CCCN2CCc2cc4c(cc2[C@H]13)OCO4 | 123 | 122 | 174 |  |
| COC(=O)C[C@H](Cc1ccc(OC(C)=O)cc1)C(=O)O[C@@H]1C(OC)=C[C@]23CCCN2CCc2cc4c(cc2[C@H]13)OCO4 | 121 | 142 | 204 |  |

Now from value to compound, other results behind:

| IC50 (K562 [1]) [nM] | IC50 (HL-60) [nM] | IC50 (U-937) [nM] | Compound | also measured |
| --- | --- | --- | --- | --- |
| 96 | 153 | 150 | COC(=O)C[C@H](Cc1ccc(O)cc1)C(=O)O[C@@H]1C(OC)=C[C@]23CCCN2CCc2cc4c(cc2[C@H]13)OCO4 |  |
| 121 | 145 | 213 | COC(=O)C[C@H](Cc1cccc(N)c1)C(=O)O[C@@H]1C(OC)=C[C@]23CCCN2CCc2cc4c(cc2[C@H]13)OCO4 |  |
| 139 | 184 | 176 | COC(=O)C[C@H](Cc1cccc(O)c1)C(=O)O[C@@H]1C(OC)=C[C@]23CCCN2CCc2cc4c(cc2[C@H]13)OCO4 |  |
| 368 | 907 | 1220 | COC(=O)C[C@H](CCC(C)(C)C)C(=O)O[C@@H]1C(OC)=C[C@]23CCCN2CCc2cc4c(cc2[C@H]13)OCO4 |  |
| 482 | 569 | 725 | COC(=O)C[C@H](Cc1ccccc1OCc1ccccc1)C(=O)O[C@@H]1C(OC)=C[C@]23CCCN2CCc2cc4c(cc2[C@H]13)OCO4 |  |
| 693 | 890 | 1050 | CCOC(=O)C[C@H](Cc1ccc(OCc2ccccc2)cc1)C(=O)O[C@@H]1C(OC)=C[C@]23CCCN2CCc2cc4c(cc2[C@H]13)OCO4 |  |
| 135 | 28500 | 16600 | Cc1ccc(NC(=O)c2ccc(CN3CCN(C)CC3)cc2)cc1Nc1nccc(-c2cccnc2)n1 [IMATINIB] |  |
| 207 | 266 | 288 | COC(=O)C[C@H](Cc1ccc(F)cc1)C(=O)O[C@@H]1C(OC)=C[C@]23CCCN2CCc2cc4c(cc2[C@H]13)OCO4 |  |
| 203 | 235 | 214 | COC(=O)C[C@H](Cc1cccc(Br)c1)C(=O)O[C@@H]1C(OC)=C[C@]23CCCN2CCc2cc4c(cc2[C@H]13)OCO4 |  |
| 373 | 597 | 673 | COC(=O)C[C@@H](Cc1ccc(F)cc1)C(=O)O[C@@H]1C(OC)=C[C@]23CCCN2CCc2cc4c(cc2[C@H]13)OCO4 |  |
| 1 | 15000 | 15000 | Cc1nc(Nc2ncc(C(=O)Nc3c(C)cccc3Cl)s2)cc(N2CCN(CCO)CC2)n1 [DASATINIB] |  |
